We go through four compounds from publication PMC5812454 (Nanomedicine : nanotechnology, biology, and medicine, 2016).

Data set [1] addresses T1, Recombinant human HER2 (Thr 23 – Thr 652) fused to IgG1 Fc Tag (Homo sapiens, UniProt P04626). Put plainly: SPR binding to immobilized HER2.
Data set [2] concerns HER2-positive breast cancer. As to conditions: cited from earlier work.
The conditions of data set [3]: ref [8]; cited from earlier work.
For data set [4], the target named is T1, Recombinant human HER2 (Thr 23 – Thr 652) fused to IgG1 Fc Tag. In words: SPR.

Where a SMILES comes first, the peptide text is derived from it. Bridges are numbered along the chain shown (N, C = ends). {NH2} = amine

For `CSCC[C@H](NC(=O)[C@H](Cc1ccc(O)cc1)NC(=O)[C@@H]1CSSC[C@H](NC(=O)[C@@H](N)Cc2ccc(O)cc2)C(=O)N[C@@H](CC(=O)O)C(=O)NCC(=O)N[C@@H](Cc2ccccc2)C(=O)N[C@@H](Cc2ccc(O)cc2)C(=O)N[C@@H](C)C(=O)N1)C(=O)N[C@@H](CC(=O)O)C(=O)N[C@H](C(N)=O)C(C)C` [AHNP] (H-YCDGFYACYMDV-NH2; disulfide 2-8), the Kd in data set [1] amounted to 520 nM. Also, the koff in data set [1] (pH 9.5) is 0.00042 s⁻¹. Besides, the “tumor growth inhibition (in words)” value in data set [2] (free AHNP, dose of 4 mg/kg, ref [12]) is recorded as “only a modest degree of inhibition”. Besides, the “water solubility (in words)” value in data set [3] was “poorly water soluble”.

Take “AHNP, anti-HER2/neu peptide, 12 amino acid exocyclic mimetic peptide (analogue 3)”: in data set [4], the koff was 0.00042 s⁻¹.

In the case of “AON: HER2-mRNA annealing Morpholino AON 5′-CATGGTGCTCACTGCGGCTCCGGC-NH2-3′ (all phosphorodiamidate morpholino (PMO), 3' {NH2})”, the tumor growth inhibition in data set [2] (AON in the absence of HER2 targeting, 2.5 mg/kg, ref [4]) is 30–40%.

Consider starPEG(PEG200-AHNP)2, for which, in data set [4], the Kd worked out at 4600 nM, the koff came to 0.00054 s⁻¹ and the kon is 118 M⁻¹ s⁻¹.
